Experimental data as given in patent US20110034472A1, “Novel Compounds for Treatment of Cancer and Disorders Associated With Angiogenesis Function” (UNIVERSITY OF SOUTHERN CALIFORNIA, priority 2004, published 2011).

tested on: HEY ovarian cancer cells; test: MTT cytotoxicity assay, HEY; assay type: cell-based, human; settings: HEY ovarian cancer cells; read-out: 50% Cytotoxic concentration (IC50)
Experimental: The sensitivity of a panel of seven human cancer cell lines to SC144 was assessed by MTT-assay. […] The sensitivity towards SC144 was time- and dose-dependent.
Cytotoxicity was assessed by a 3-(4,5-dimethylthiazol-2-yl)-2,5-diphenyltetrazolium bromide assay as previously described (Carmichael et al. (1987) Cancer Res. 47:936-42). Briefly, cells were seeded in 96-well microtiter plates (PC3 and DU145 at 5,000 cells/well and LNCaP at 10,000 cells/well; breast and ovarian cells at 4,000 cells/well) and allowed to attach. Cells were subsequently treated with a continuous exposure to the corresponding drug for 72 hours. A 3-(4,5-dimethylthiazol-2-yl)-2,5-diphenyltetrazolium bromide solution (at a final concentration of 0.5 mg/mL) was added to each well and cells were incubated for 4 hours at 37° C. After removal of the medium, DMSO was added and the absorbance was read at 570 nm. All assays were done in triplicate. The IC50 was then determined for each drug from a plot of log(drug concentration) versus percentage of cell kill.

Q: `CCn1c(=O)c(C(=O)NNC(=O)c2ccccc2[N+](=O)[O-])c(O)c2ccccc21` [SC214] was tested. Which IC50 did it give?
A: The IC50 was 1 µM.

Q: How did the IC50 turn out when `O=C(CSc1nnc(-c2ccccc2O)n1Cc1ccccc1)NNC(=O)c1ccccc1O` [SC246] was run?
A: Its IC50 is 1 µM.

Q: Which IC50 does the source give for `CCCn1c(=O)c(C(=O)NNC(=O)CC(=O)OCC)c(O)c2ccccc21` [SC202] here?
A: Its IC50 is 1 µM.

Q: Which IC50 does the source give for `CSc1nc(NNC(=O)c2ccco2)c2c3c(sc2n1)COC(C)(C)C3` [SC212] here?
A: The IC50 was 1 µM.

Q: With `CCCn1c(=O)c(C(=O)NNC(=O)c2ccc(C)cc2)c(O)c2ccccc21` [SC206] as the compound, how does the IC50 read?
A: Its IC50 is 1 µM.

Q: For `Cc1ccc(-n2c(SCC(=O)NNC(=O)c3ccccc3O)nnc2-c2ccccc2O)cc1` [SC245], which IC50 is on record?
A: Its IC50 is 1 µM.

same assay, conditions: Homo sapiens, read-out: 50% Cytotoxic concentration (IC50)

Q: Which IC50 does the source give for `Cc1cccc(C(O)(C(=O)NNC(=O)/C(O)=C/C(=O)c2ccccc2)c2cccc(C)c2)c1` [SC230] here?
A: Its IC50 is 3 µM.

same assay, conditions: Homo sapiens; HEY ovarian cancer cells; read-out: 50% Cytotoxic concentration (IC50)

Q: With `O=C(NNC(=O)c1c(O)c2ccccc2[nH]c1=O)c1ccccc1[N+](=O)[O-]` [SC219] as the compound, how does the IC50 read?
A: Its IC50 is 2 µM.

Q: Which IC50 does the source give for `CCC(=O)NNc1nc2c(c(=O)n1Cc1ccccc1)C1(CCCC1)Cc1ccccc1-2` [SC228] here?
A: Its IC50 is 6 µM.

Q: For `CCn1c(=O)c(C(=O)NNC(=O)Cc2ccccc2)c(O)c2ccccc21` [SC203], which IC50 is on record?
A: The IC50 was 6 µM.

Q: How did the IC50 turn out when `CCCCCCC(=O)NNC(=O)c1c(O)c2ccccc2n(CCC)c1=O` [SC235] was run?
A: Its IC50 is 7 µM.

Q: For `O=C(COc1ccc2ccccc2c1)NNC(=O)c1ccccc1O` [SC271], which IC50 is on record?
A: The IC50 was 6 µM.

Q: Which IC50 does the source give for `O=C(/C=C/NNC(=O)c1ccccc1O)c1ccccc1` [SC258] here?
A: The IC50 was 2 µM.

Q: `O=C(CSc1nnc(-c2ccccc2)n1Cc1ccccc1)NNC(=O)c1ccccc1O` [SC241] was tested. Which IC50 did it give?
A: Its IC50 is 5 µM.

Q: With `CCn1c(=O)c(C(=O)NNC(=O)c2ccc(C)cc2)c(O)c2ccccc21` [SC205] as the compound, how does the IC50 read?
A: Its IC50 is 6 µM.

Q: For `O=C(NNC(=O)c1cc2ccccc2oc1=O)c1ccc(S(=O)(=O)N2CCCCC2)cc1` [SC238], which IC50 is on record?
A: Its IC50 is 3 µM.

Q: How did the IC50 turn out when `O=C(NNC(=O)c1cccs1)c1ccc(O)c(O)c1` [SC257] was run?
A: The IC50 was 2 µM.

Q: Which IC50 does the source give for `CCn1c(NNC=O)nc2c1c(=O)[nH]c(=O)n2C` [SC253] here?
A: Its IC50 is 12 µM.

Q: Which IC50 does the source give for `O=C(NNC(=O)c1c(O)c2ccccc2[nH]c1=O)c1cccc([N+](=O)[O-])c1` [SC221] here?
A: Its IC50 is 4 µM.

Q: For `COc1ccc(C(=O)NNC(=O)c2cc3ccccc3oc2=O)cc1OC` [SC223], which IC50 is on record?
A: The IC50 was 4 µM.

Q: For `Cc1ccc(C(=O)NNC(=O)CSc2nnc3c4c5c(sc4nc(C4CC4)n23)CCCC5)cc1` [SC250], which IC50 is on record?
A: The IC50 was 2 µM.

Q: With `CC1=C(C)C2c3nnc(SCC(=O)NNC(=O)c4ccco4)n3C=NC2S1` (stereo not drawn) [SC220] as the compound, how does the IC50 read?
A: Its IC50 is 4 µM.

Q: Which IC50 does the source give for `O=C(CSc1nnc(Cc2ccccc2)n1-c1cccc(Cl)c1)NNC(=O)c1ccccc1O` [SC248] here?
A: The IC50 was 2 µM.

Q: How did the IC50 turn out when `CCn1c(=O)c(C(=O)NNC(=O)c2cccc(C)c2)c(O)c2ccccc21` [SC207] was run?
A: The IC50 was 6 µM.

Q: For `Cc1ccc(C(=O)n2nnc3c(NNC(=O)COc4ccc(F)cc4)nc(C4CC4)nc32)cc1` [SC243], which IC50 is on record?
A: Its IC50 is 6 µM.

Q: For `O=C(O)CCCC(=O)NNC(=O)c1ccccc1Cl` [SC259], which IC50 is on record?
A: Its IC50 is 18 µM.

Q: Which IC50 does the source give for `CCC(=O)NNC(=O)c1c(O)c2ccccc2[nH]c1=O` [SC256] here?
A: The IC50 was 3 µM.

Q: For `O=C(O)/C=C/C(=O)NNC(=O)c1cc(-c2ccccc2)[nH]n1` [SC263], which IC50 is on record?
A: Its IC50 is 5 µM.

Q: With `O=C(NNC(=O)c1cccs1)c1ccccn1` [SC252] as the compound, how does the IC50 read?
A: The IC50 was 16 µM.

Q: With `O=C(NNC(=O)c1cc2ccccc2oc1=O)c1ccc(S(=O)(=O)N2CCOCC2)cc1` [SC239] as the compound, how does the IC50 read?
A: The IC50 was 3 µM.

Q: How did the IC50 turn out when `Cc1occc1C(=O)NNC(=O)c1ccccc1F` [SC254] was run?
A: The IC50 was 17 µM.

Q: Which IC50 does the source give for `CC1(C)Cc2c(sc3nc(NNC(=O)c4ccccc4)[nH]c(=O)c23)CO1` [SC229] here?
A: Its IC50 is 8 µM.

Q: Which IC50 does the source give for `CC1=C(C)C2c3nnc(SCC(=O)NNC(=O)c4ccco4)n3C(C(C)C)=NC2S1` (stereo not drawn) [SC232] here?
A: The IC50 was 6 µM.

Q: How did the IC50 turn out when `CCc1cc2ccc(C)cc2nc1SCC(=O)NNC(=O)c1ccco1` [SC227] was run?
A: The IC50 was 6 µM.

Q: How did the IC50 turn out when `CCc1cc2ccccc2nc1SCC(=O)NNC(=O)c1ccccc1` [SC211] was run?
A: Its IC50 is 10 µM.

Q: Which IC50 does the source give for `O=C(CSc1nc2ccccc2cc1Cc1ccccc1)NNC(=O)c1ccco1` [SC222] here?
A: Its IC50 is 8 µM.

Q: `O=C(CCc1ccccc1)NNC(=O)c1ccc2ccccc2c1O` [SC270] was tested. Which IC50 did it give?
A: The IC50 was 5 µM.

Q: With `COc1ccc(C(=O)NNC(=O)CSc2ncnc3sc4c(c23)CCCC4)cc1` [SC226] as the compound, how does the IC50 read?
A: Its IC50 is 5 µM.

Q: How did the IC50 turn out when `O=C(NNC(=O)c1cccs1)c1ccco1` [SC251] was run?
A: The IC50 was 15 µM.
